These results are taken from PMC4657039 (Assay and Drug Development Technologies, 2014).

In one assay the target is human Cav3.2 (Homo sapiens, UniProt O95180). The class given is cell-based.
The target in assay [1] is T1, human Cav2.2/β3/α2δ1 (Homo sapiens, UniProt Q00975). The class given is cell-based.
The target in a further assay is human Cav2.1/β4/α2δ1 (Homo sapiens, UniProt O00555). The class given is cell-based.
The target of another assay is human Cav1.2/β2/α2δ1 (Homo sapiens, UniProt Q13936).
Assay [2] deals with T1, human Cav2.2/β3/α2δ1. Kind of assay: IonWorks Barracuda repetitive test pulse train. The class given is cell-based. The settings on record: Cav2.2, 30 pulse train 0.1 Hz. In general terms: Patch clamp records ionic current or voltage across a cell membrane.

Structures are written as SMILES. Bounds are passed on as bounds.

Chain of human Cav1.2/β2/α2δ1 (P54289 957-1103): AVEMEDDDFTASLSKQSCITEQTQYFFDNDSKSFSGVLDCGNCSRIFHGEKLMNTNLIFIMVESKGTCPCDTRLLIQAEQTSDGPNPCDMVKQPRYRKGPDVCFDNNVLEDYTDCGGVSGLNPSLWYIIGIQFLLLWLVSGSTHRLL
Chain of human Cav1.2/β2/α2δ1 (Q08289 whole entry, further chain): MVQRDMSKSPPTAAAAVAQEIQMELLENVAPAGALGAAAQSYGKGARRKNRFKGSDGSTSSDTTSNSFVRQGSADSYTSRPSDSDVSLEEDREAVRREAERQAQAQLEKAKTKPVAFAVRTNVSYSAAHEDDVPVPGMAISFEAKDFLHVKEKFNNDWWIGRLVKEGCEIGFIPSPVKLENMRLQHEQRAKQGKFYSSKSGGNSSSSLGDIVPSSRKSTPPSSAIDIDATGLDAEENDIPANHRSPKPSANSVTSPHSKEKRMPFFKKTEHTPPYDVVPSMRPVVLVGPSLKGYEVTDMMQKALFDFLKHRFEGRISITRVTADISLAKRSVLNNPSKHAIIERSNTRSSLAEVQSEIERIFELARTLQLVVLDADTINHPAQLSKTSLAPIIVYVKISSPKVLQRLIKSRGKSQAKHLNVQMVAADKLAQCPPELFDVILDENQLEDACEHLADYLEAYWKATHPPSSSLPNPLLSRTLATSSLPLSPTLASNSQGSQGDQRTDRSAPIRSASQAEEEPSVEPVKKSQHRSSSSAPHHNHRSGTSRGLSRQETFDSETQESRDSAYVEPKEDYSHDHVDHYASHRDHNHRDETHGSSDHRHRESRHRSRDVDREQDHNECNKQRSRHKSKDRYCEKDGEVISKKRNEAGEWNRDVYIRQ
Chain of human Cav1.2/β2/α2δ1 (P54289 25-956): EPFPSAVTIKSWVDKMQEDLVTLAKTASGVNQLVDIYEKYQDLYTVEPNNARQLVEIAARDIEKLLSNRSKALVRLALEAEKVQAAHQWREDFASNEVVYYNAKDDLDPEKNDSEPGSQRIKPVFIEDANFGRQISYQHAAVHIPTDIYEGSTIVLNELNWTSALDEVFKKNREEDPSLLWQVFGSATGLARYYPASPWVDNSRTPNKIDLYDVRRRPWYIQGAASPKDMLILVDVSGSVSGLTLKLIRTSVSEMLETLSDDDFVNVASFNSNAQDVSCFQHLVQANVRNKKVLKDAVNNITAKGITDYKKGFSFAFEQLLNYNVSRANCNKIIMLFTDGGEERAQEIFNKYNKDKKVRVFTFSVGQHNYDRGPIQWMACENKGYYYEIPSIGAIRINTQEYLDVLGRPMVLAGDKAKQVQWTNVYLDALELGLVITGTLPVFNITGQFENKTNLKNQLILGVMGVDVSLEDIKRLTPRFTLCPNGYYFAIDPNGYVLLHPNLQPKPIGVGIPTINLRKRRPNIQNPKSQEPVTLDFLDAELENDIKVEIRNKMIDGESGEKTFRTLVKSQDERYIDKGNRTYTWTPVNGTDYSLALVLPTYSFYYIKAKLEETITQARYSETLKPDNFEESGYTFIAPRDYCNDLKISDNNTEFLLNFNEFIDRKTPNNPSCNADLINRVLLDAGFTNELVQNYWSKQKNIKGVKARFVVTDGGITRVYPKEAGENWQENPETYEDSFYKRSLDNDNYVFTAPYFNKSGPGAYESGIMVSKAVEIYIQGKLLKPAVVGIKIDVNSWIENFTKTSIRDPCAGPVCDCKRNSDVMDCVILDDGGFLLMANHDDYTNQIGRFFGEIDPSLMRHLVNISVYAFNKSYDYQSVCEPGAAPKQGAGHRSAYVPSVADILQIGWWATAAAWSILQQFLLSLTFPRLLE
Chain of human Cav1.2/β2/α2δ1 (Q13936 whole entry): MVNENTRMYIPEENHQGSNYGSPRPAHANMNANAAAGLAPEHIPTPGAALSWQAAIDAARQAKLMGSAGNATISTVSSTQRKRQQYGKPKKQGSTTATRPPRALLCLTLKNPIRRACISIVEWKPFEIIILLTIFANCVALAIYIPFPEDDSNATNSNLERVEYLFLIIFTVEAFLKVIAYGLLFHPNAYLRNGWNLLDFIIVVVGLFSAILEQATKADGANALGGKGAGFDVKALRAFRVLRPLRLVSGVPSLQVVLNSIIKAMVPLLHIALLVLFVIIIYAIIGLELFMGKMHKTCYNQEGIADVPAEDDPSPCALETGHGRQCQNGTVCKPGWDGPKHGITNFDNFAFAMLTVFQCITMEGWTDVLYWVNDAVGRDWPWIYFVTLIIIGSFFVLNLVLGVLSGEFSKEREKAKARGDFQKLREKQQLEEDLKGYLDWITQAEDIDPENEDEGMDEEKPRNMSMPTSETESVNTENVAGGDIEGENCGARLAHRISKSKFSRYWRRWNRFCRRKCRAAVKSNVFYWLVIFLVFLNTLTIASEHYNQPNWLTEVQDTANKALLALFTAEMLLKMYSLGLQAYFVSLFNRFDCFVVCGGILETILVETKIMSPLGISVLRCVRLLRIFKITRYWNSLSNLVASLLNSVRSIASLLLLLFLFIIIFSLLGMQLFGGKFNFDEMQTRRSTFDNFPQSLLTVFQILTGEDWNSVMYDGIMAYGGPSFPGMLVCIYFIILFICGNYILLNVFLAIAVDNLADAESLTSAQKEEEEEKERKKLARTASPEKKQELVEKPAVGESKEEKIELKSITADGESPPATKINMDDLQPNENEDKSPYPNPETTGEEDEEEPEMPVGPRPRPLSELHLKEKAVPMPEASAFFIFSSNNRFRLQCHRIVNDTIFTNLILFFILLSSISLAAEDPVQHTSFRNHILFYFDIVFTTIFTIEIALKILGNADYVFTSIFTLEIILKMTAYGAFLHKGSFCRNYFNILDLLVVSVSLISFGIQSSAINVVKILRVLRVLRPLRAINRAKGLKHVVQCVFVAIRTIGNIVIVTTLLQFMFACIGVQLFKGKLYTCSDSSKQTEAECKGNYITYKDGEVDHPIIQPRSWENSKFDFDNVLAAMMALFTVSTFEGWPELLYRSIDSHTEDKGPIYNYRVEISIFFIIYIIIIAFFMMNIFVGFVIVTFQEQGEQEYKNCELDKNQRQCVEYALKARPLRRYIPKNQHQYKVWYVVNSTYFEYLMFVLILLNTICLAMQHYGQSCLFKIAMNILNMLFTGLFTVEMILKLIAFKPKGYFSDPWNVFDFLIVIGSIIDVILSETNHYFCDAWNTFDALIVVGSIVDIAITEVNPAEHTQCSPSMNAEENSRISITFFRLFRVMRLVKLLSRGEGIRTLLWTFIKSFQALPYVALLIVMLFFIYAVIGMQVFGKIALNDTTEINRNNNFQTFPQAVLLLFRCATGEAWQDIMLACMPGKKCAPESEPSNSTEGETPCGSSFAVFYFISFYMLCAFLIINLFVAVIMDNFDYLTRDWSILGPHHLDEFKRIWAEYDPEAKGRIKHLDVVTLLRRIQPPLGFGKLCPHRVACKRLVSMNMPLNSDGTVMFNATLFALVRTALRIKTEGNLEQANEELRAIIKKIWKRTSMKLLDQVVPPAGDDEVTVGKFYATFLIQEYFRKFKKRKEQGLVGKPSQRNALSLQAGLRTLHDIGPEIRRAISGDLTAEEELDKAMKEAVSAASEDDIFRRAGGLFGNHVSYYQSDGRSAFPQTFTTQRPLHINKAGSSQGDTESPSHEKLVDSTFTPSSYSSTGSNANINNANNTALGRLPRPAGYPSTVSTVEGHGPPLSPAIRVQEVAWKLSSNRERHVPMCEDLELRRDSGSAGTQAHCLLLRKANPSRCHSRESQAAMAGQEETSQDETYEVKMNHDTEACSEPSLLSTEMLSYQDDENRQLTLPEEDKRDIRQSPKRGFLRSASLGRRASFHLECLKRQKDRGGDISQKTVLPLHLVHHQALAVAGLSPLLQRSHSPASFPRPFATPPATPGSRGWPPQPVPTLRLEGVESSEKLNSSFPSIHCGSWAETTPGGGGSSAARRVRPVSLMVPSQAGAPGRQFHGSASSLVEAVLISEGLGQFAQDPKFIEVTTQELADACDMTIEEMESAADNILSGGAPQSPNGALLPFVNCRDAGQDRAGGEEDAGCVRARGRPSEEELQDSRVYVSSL

In the case of `COC(=O)C1=C(C)NC(C)=C([N+](=O)[O-])[C@H]1c1ccccc1C(F)(F)F` [BAY K8644, (S)-(−)-BAY K8644], the “effect on Cav3.2 at high concentration” value on human Cav3.2 (concentrations ≥10 μM) is “nonspecific inhibition”. In addition, the “effect on Cav2.2 at high concentration” value on human Cav2.2/β3/α2δ1 [1] (concentrations ≥10 μM) is listed as “nonspecific inhibition”. Moreover, the “effect on Cav2.1 at high concentration” value at human Cav2.1/β4/α2δ1 (concentrations ≥10 μM) was “nonspecific inhibition”. The “effect on Cav1.2 currents” value on human Cav1.2/β2/α2δ1 (0.3 μM, test pulse 10 mV, holding −90 mV, 60-s CP to −50 mV) is listed as “potentiated”. The “effect on Cav1.2 at high concentration” value on human Cav1.2/β2/α2δ1 (concentrations ≥10 μM) is recorded as “nonspecific inhibition”. Also, at human Cav1.2/β2/α2δ1 (dose–response, Fig. 2B), the “extent of potentiation of Cav1.2 channels” value is “twofold potentiation”.
Turning to `COCC(=O)O[C@]1(CCN(C)CCCc2nc3ccccc3[nH]2)CCc2cc(F)ccc2[C@@H]1C(C)C` [Mibefradil, mibefradil], the “potency of use-dependent block in Cav3.2 versus Cav1.2” value on human Cav3.2 (use-dependent block, multiple mode assay) is recorded as “fourfold more potent”. Further, the “Cav2.2 blocking characteristics in multiple mode assay” value at human Cav2.2/β3/α2δ1 [1] (current traces Fig. 5B, 10 μM mibefradil, 30 μM verapamil) is given as “use-dependent, but not inactivation-dependent block augmentation”. Besides, on human Cav2.2/β3/α2δ1 [2], the “potency of inhibition at TP30 compared with TP1” value is “about seven times more potent”.
Take `COC(=O)C1=C(C)NC(C)=C(C(=O)OC)C1c1ccccc1[N+](=O)[O-]` [Nifedipine, nifedipine]: the “sensitivity of Cav3.2 channels” value at human Cav3.2 (concentrations up to 3 μM (not shown)) was “insensitive”.
Consider `O=c1[nH]c2ccccc2n1C1CCN(CCCC(c2ccc(F)cc2)c2ccc(F)cc2)CC1` [Pimozide, pimozide], for which the IC50 at human Cav2.2/β3/α2δ1 [1] and on human Cav2.1/β4/α2δ1 was more than 30 µM each time.
